How the values were obtained:
[1] = test system: yeast expressing the Sec-1 G protein gamma subunit fusion and syntaxin; assay: growth inhibition assay (halo assay); format: cell-based, Saccharomyces cerevisiae; details: filter disks containing 5 or 15 μg of α-factor; strain MHY6; documented after 2 days at 30° C.
Protocol: (§1) Standard methods for the growth, maintenance, and transformation of yeast and bacteria, and for the manipulation of DNA, were used throughout (Ausubel et al. 1987, Current Protocols in Molecular Biology. Wiley-Interscience, New York). The Escherichia coli strain DH5α was used for the maintenance of plasmids. Yeast cells were grown in synthetic medium supplemented with amino acids, adenine and 2% glucose (SCD) or 2% galactose plus 0.2% sucrose (SCG); tryptophan and/or uracil were omitted to maintain selection for plasmids. The Saccharomyces cerevisiae strain used in this study was MHY6 (from Jeremy Thomer) (MATa ura3-52 lys2-801^am ade2-101^oc trp1-Δ63 his3-Δ200 leu2-Δ1 ste18Δ::LEU2) (derived from Sikorski et al. (1989) Genetics 122(1):19-27).
(§2) To evaluate to the interactions of the Sec-1 G protein gamma subunit fusion and syntaxin, a growth inhibition assay (halo assay) was carried out by diluting 50 μL from an overnight culture grown at 30° C. in selective media with 2 mL sterile water, followed by the addition of an equal volume of 1% (w/v) dissolved agar (55° C.) and poured onto a culture dish of SCD-Trp-Ura or SCG-Trp-Ura medium. Sterile filter discs were spotted with 5 μg or 15 μg of synthetic α-factor pheromone and placed onto the nascent lawn to induce growth arrest. The resulting zone of growth-arrested cells was documented after 2 days at 30° C. […]

[2] = test system: control cells which express the Sec-1 G protein gamma fusion alone and cells which express syntaxin alone; assay: growth inhibition assay (halo assay), control cells; format: cell-based, Saccharomyces cerevisiae; details: upon pheromone addition, filter disks with 5 or 15 μg, 2 days at 30° C.
Protocol: as §1, §2

Substance: α-factor
- α-factor induced growth arrest (zone of inhibition around filter paper disks) [1]: no zone of inhibition
- pheromone induced growth arrest [2]: growth arrest
